Results taken from patent US11053204B2, “Pyrimidinyloxy benzene derivatives as herbicides” (FMC Corporation, priority 2015, dated 2021).

Experiments:
Format in all cases: in vivo
[1] = system: Italian ryegrass (Lolium multiflorum); test: Test A preemergence, visual injury rating
Method in brief: (§1)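 Injury scores run from 0, no effect, to 100, complete control, judged by eye against untreated plants roughly 10 days after treatment. Chemicals carried a surfactant in a non-phytotoxic solvent and went onto loam–sand soil preemergence or onto one- to two-leaf seedlings postemergence.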

[2] = system: barnyardgrass (Echinochloa crus-galli); test: Test A preemergence, visual injury rating
Method in brief: as §1

[3] = system: giant foxtail (Setaria faberii); test: Test A preemergence, visual injury rating
Method in brief: as §1

kochia (Kochia scoparia) [4] = test: Test A preemergence, visual injury rating
Method in brief: as §1

[5] = system: pigweed (Amaranthus retroflexus); test: Test A preemergence, visual injury rating
Method in brief: as §1

[6] = system: ragweed (common ragweed, Ambrosia elatior); test: Test A preemergence, visual injury rating
Method in brief: as §1

[7] = system: Italian ryegrass (Lolium multiflorum); test: Test A postemergence, visual injury rating
Method in brief: as §1

[8] = system: barnyardgrass (Echinochloa crus-galli); test: Test A postemergence, visual injury rating; conditions: 0 is no effect, 100 is complete control; for Barnyardgrass plant response rating: 0 to 100 scale, approximately 10 days
Method in brief: as §1

[9] = system: blackgrass (Alopecurus myosuroides); test: Test A postemergence, visual injury rating
Method in brief: as §1

corn (Zea mays) = test: Test A postemergence, visual injury rating
Method in brief: as §1

[10] = system: galium (catchweed bedstraw, Galium aparine); test: Test A postemergence, visual injury rating
Method in brief: as §1

[11] = system: giant foxtail (Setaria faberii); test: Test A postemergence, visual injury rating
Method in brief: as §1

kochia (Kochia scoparia) [12] = test: Test A postemergence, visual injury rating
Method in brief: as §1

[13] = system: pigweed (Amaranthus retroflexus); test: Test A postemergence, visual injury rating
Method in brief: as §1

[14] = system: ragweed (common ragweed, Ambrosia elatior); test: Test A postemergence, visual injury rating
Method in brief: as §1

[15] = system: wheat (Triticum aestivum); test: Test A postemergence, visual injury rating
Method in brief: as §1

[16] = system: barnyardgrass (Echinochloa crus-galli); test: Test B flooded paddy test, plant response rating; conditions: 250 g ai/ha; Flood; scale of 0 to 100 where 0 is no effect and 100 is complete control; 13 to 15 days
Method in brief: (§2)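 Test compounds are applied straight into paddy water held 3 cm above the soil surface, with that flood maintained for the whole test. After 13 to 15 days in the greenhouse, each species is scored visually relative to controls.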

[17] = system: ducksalad (Heteranthera limosa); test: Test B flooded paddy test, plant response rating; conditions: 250 g ai/ha; Flood; scale of 0 to 100 where 0 is no effect and 100 is complete control; 13 to 15 days
Method in brief: as §2

rice (Oryza sativa) = test: Test B flooded paddy test, plant response rating; conditions: 250 g ai/ha; Flood; scale of 0 to 100 where 0 is no effect and 100 is complete control; 13 to 15 days
Method in brief: as §2

[18] = system: sedge, umbrella (small-flower umbrella sedge, Cyperus difformis); test: Test B flooded paddy test, plant response rating; conditions: 250 g ai/ha; Flood; scale of 0 to 100 where 0 is no effect and 100 is complete control; 13 to 15 days
Method in brief: as §2

[19] = 125 g ai/ha, 0 to 100 scale (0 no effect, 100 complete control)
[20] = 500 g ai/ha, 0 to 100 scale (0 no effect, 100 complete control)
[21] = 125 g ai/ha, 0 to 100 scale, 0 is no effect, 100 is complete control, approximately 10 days
[22] = 500 g ai/ha, 0 is no effect, 100 is complete control
[23] = 31 g ai/ha, 0 to 100 scale, 0 no effect, 100 complete control
[24] = 31 g ai/ha, 0 to 100 scale (0 no effect, 100 complete control)

| SMILES | Plant response rating, Ryegrass, Italian [1, 19] | Plant response rating, Barnyardgrass [2, 19] | Plant response rating, Foxtail, Giant [3, 19] | Plant response rating, Kochia (kochia (Kochia scoparia) [4]; [19]) | Plant response rating, Pigweed [5, 19] | Plant response rating, Ragweed [6, 19] | Ryegrass, Italian plant response rating [7, 21] | Barnyardgrass plant response rating ([8]; 125 g ai/ha) | Blackgrass plant response rating [9, 21] | Corn plant response rating (corn (Zea mays); [21]) | Galium plant response rating [10, 21] | Foxtail, Giant plant response rating [11, 21] | Kochia plant response rating (kochia (Kochia scoparia) [12]; [21]) | Pigweed plant response rating [13, 21] | Ragweed plant response rating [14, 21] | Wheat plant response rating [15, 21] | Plant response rating, Barnyardgrass [16] | Plant response rating, Ducksalad [17] | Plant response rating, Rice (rice (Oryza sativa)) | Plant response rating, Sedge, Umbrella [18] | further results |
| --- | --- | --- | --- | --- | --- | --- | --- | --- | --- | --- | --- | --- | --- | --- | --- | --- | --- | --- | --- | --- | --- |
| O=Cc1c(Cl)cccc1Oc1ncc(Cl)cn1 [Compound 139] | 0 | 0 | 0 | 0 | 0 | 50 | 0 | 0 | 0 | 0 | 0 | 0 | 0 | 0 | 0 | 0 | 0 | 30 | 0 | 0 | Ryegrass, Italian plant response rating [1, 20]: 0; Barnyardgrass plant response rating [2, 20]: 0; Foxtail, Giant plant response rating [3, 20]: 0; Kochia plant response rating (kochia (Kochia scoparia) [4]; [20]): 0; Pigweed plant response rating [5, 20]: 0; Ragweed plant response rating [6, 20]: 0; Ryegrass, Italian plant response rating (0 to 100 scale) [7, 22]: 20; Barnyardgrass plant response rating (0 to 100 scale) ([8]; 500 g ai/ha): 0; Blackgrass plant response rating (0 to 100 scale) [9, 22]: 0; Corn plant response rating (0 to 100 scale) (corn (Zea mays); [22]): 0; Galium plant response rating (0 to 100 scale) [10, 22]: 0; Foxtail, Giant plant response rating (0 to 100 scale) [11, 22]: 0; Kochia plant response rating (0 to 100 scale) (kochia (Kochia scoparia) [12]; [22]): 0; Pigweed plant response rating (0 to 100 scale) [13, 22]: 0; Ragweed plant response rating (0 to 100 scale) [14, 22]: 0; Wheat plant response rating (0 to 100 scale) [15, 22]: 0 |
| N#CCc1ccccc1Oc1ncc(Cl)cn1 [Compound 140] | 10 | 0 | 0 | 40 | 10 | 0 | 0 | 0 | 0 | 0 | 0 | 0 | 30 | 20 | 0 | 0 | 0 | 0 | 0 | 0 | Plant response rating, Ryegrass, Italian [1, 23]: 10; Plant response rating, Barnyardgrass [2, 23]: 0; Plant response rating, Foxtail, Giant [3, 23]: 0; Plant response rating, Kochia (kochia (Kochia scoparia) [4]; [23]): 0; Plant response rating, Pigweed [5, 23]: 0; Plant response rating, Ragweed [6, 23]: 0; Ryegrass, Italian plant response rating [7, 24]: 0; Barnyardgrass plant response rating ([8]; 31 g ai/ha): 0; Blackgrass plant response rating [9, 24]: 0; Corn plant response rating (corn (Zea mays); [24]): 0; Galium plant response rating [10, 24]: 0; Foxtail, Giant plant response rating [11, 24]: 0; Kochia plant response rating (kochia (Kochia scoparia) [12]; [24]): 0; Pigweed plant response rating [13, 24]: 0; Ragweed plant response rating [14, 24]: 0; Wheat plant response rating [15, 24]: 0 |
| CCCCCC(C#N)c1ccccc1Oc1ncc(Cl)cn1 (stereo not drawn) [Compound 141, 2-[(5-chloro-2-pyrmidinyl)oxy]-α-pentylbenzeneacetonitrile] | 10 | 60 | 100 | 20 | 90 | 30 | 10 | 20 | 10 | 20 | 60 | 40 | 60 | 70 | 20 | 0 | 20 | 70 | 10 | 50 | Plant response rating, Ryegrass, Italian [1, 23]: 0; Plant response rating, Barnyardgrass [2, 23]: 0; Plant response rating, Foxtail, Giant [3, 23]: 10; Plant response rating, Kochia (kochia (Kochia scoparia) [4]; [23]): 10; Plant response rating, Pigweed [5, 23]: 0; Plant response rating, Ragweed [6, 23]: 0; Ryegrass, Italian plant response rating [7, 24]: 0; Barnyardgrass plant response rating ([8]; 31 g ai/ha): 10; Blackgrass plant response rating [9, 24]: 0; Corn plant response rating (corn (Zea mays); [24]): 10; Galium plant response rating [10, 24]: 40; Foxtail, Giant plant response rating [11, 24]: 20; Kochia plant response rating (kochia (Kochia scoparia) [12]; [24]): 50; Pigweed plant response rating [13, 24]: 40; Ragweed plant response rating [14, 24]: 0; Wheat plant response rating [15, 24]: 0 |
| N#Cc1cccc(Oc2ncc(Cl)cn2)c1C(=O)CCC(F)(F)F [Compound 142] | 0 | 0 | 0 | 0 | 0 | 0 | 0 | 0 | 0 | 10 | 20 | 0 | 10 | 20 | 20 | 0 | 0 | 0 | 0 | 0 | Plant response rating, Ryegrass, Italian [1, 23]: 0; Plant response rating, Barnyardgrass [2, 23]: 0; Plant response rating, Foxtail, Giant [3, 23]: 0; Plant response rating, Kochia (kochia (Kochia scoparia) [4]; [23]): 0; Plant response rating, Pigweed [5, 23]: 0; Plant response rating, Ragweed [6, 23]: 0; Ryegrass, Italian plant response rating [7, 24]: 0; Barnyardgrass plant response rating ([8]; 31 g ai/ha): 0; Blackgrass plant response rating [9, 24]: 0; Corn plant response rating (corn (Zea mays); [24]): 0; Galium plant response rating [10, 24]: 0; Foxtail, Giant plant response rating [11, 24]: 0; Kochia plant response rating (kochia (Kochia scoparia) [12]; [24]): 0; Pigweed plant response rating [13, 24]: 0; Ragweed plant response rating [14, 24]: 0; Wheat plant response rating [15, 24]: 0 |
